Laboratory results taken from patent US4296112A, “Cephalosporins” (Mitsui Toatsu Chemicals, Inc., priority 1979, dated 1981).
In brackets after ≈: the same amount, converted by molar mass. Where two headings read alike, the source gives them in different places.

Key:
Format in all cases: cell-based
[1] = tested on: Bacillus cereus (IAM 1792); test: MIC, agar plate dilution (Referential Example 1, Table 1); details: IAM1792, HIA medium plate, 37° C., 18 hours, read-out: Minimum growth inhibitory concentration (MIC)
Procedure: (§1) The antibacterial activities of the cephalosporins of this invention were measured using the sodium salts of the compounds obtained in Synthesis Examples 1 and 2. The procedure and the results are shown in Referential Example 1.
(§2) Carbenicillin sodium salt (CB-PC) and cephazoline sodum salt (CEZ) were used as controls.
(§3) The antibacterial activities of the test compounds against various Gram-positive and Gram-negative bacteria were determined in a customary manner by the minimum growth inhibitory concentration method (MIC method).
(§4) The experimental procedure was as follows:
(§5) A commercially available heart infusion agar medium (to be abbreviated HIA medium) was used as an assay medium, and a commercially available trypto-soy bouillon medium (to be abbreviated TSB) was used as a medium for the growth of test bacterial strains.
(§6) The test compound was diluted with the melted HIA medium to 100 μg/ml as a maximum concentration, and then serially diluted double. The dilutions were poured into sterilized Petri dishes respectively and allowed to cool and solidify to prepare plates containing the test compound.
(§7) The test bacterial strain was cultivated at 37° C. for 18 to 24 hours in the TSB medium. The culture broth was diluted to 50 to 500 times with a freshly prepared TSB culture medium, and one platinum loopful of the dilution was inoculated in each of the plates containing the test compound.

[2] = tested on: Enterobacter aerogenes (IFO 3320); test: as above; details: Klebsiella aerogenes, IFO3320, 18 h, read-out: Minimum growth inhibitory concentration (MIC)
Procedure: as §1, §2, §3, §4, §5, §6, §7

Escherichia coli (26RO3) = test: as above; details: HIA medium plate, 37° C., 18 hours, read-out: Minimum growth inhibitory concentration (MIC)
Procedure: as §1, §2, §3, §4, §5, §6, §7

Escherichia coli (K-12) = test: as above; details: 18 h, read-out: Minimum growth inhibitory concentration (MIC)
Procedure: as §1, §2, §3, §4, §5, §6, §7

[3] = tested on: Klebsiella pneumonia (F-5089); test: as above; details: Klebsiella pneumoniae; HIA medium plate, 37° C., 18 hours; read-out: Minimum growth inhibitory concentration (MIC)
Procedure: as §1, §2, §3, §4, §5, §6, §7

[4] = tested on: Klebsiella pneumoniae (ATCC 10031); test: as above; details: ATCC10031, 18 h, read-out: Minimum growth inhibitory concentration (MIC)
Procedure: as §1, §2, §3, §4, §5, §6, §7

[5] = tested on: Klebsiella pneumoniae (Horino); test: as above; details: HIA medium plate, 37° C., 18 hours, read-out: Minimum growth inhibitory concentration (MIC)
Procedure: as §1, §2, §3, §4, §5, §6, §7

Proteus morganii (C-39) = test: as above; details: Morganella morganii; HIA medium plate, 37° C., 18 hours; read-out: Minimum growth inhibitory concentration (MIC)
Procedure: as §1, §2, §3, §4, §5, §6, §7

Proteus rettgeri (T-2) = test: as above; details: Providencia rettgeri; HIA medium plate, 37° C., 18 hours; read-out: Minimum growth inhibitory concentration (MIC)
Procedure: as §1, §2, §3, §4, §5, §6, §7

Proteus vulgaris (OX-19) = test: as above; details: 18 h, read-out: Minimum growth inhibitory concentration (MIC)
Procedure: as §1, §2, §3, §4, §5, §6, §7

[6] = tested on: Pseudomonas aeruginosa (395); test: as above; details: read-out: Minimum growth inhibitory concentration (MIC)
Procedure: as §1, §2, §3, §4, §5, §6, §7

[7] = tested on: Pseudomonas aeruginosa (718); test: as above; details: HIA medium plate, 37° C., 18 hours, read-out: Minimum growth inhibitory concentration (MIC)
Procedure: as §1, §2, §3, §4, §5, §6, §7

[8] = tested on: Pseudomonas aeruginosa (ATCC 10145); test: as above; details: ATCC10145, HIA medium plate, 37° C., 18 hours, read-out: Minimum growth inhibitory concentration (MIC)
Procedure: as §1, §2, §3, §4, §5, §6, §7

[9] = tested on: Pseudomonas aeruginosa (F1629); test: as above; details: HIA medium plate, 37° C., 18 hours, read-out: Minimum growth inhibitory concentration (MIC)
Procedure: as §1, §2, §3, §4, §5, §6, §7

[10] = tested on: Pseudomonas aeruginosa (IFO-3901); test: as above; details: IFO3901, HIA medium plate, 37° C., 18 hours, read-out: Minimum growth inhibitory concentration (MIC)
Procedure: as §1, §2, §3, §4, §5, §6, §7

[11] = tested on: Pseudomonas aeruginosa (NCTC 7244); test: as above; details: NCTC7244, HIA medium plate, 37° C., 18 hours, read-out: Minimum growth inhibitory concentration (MIC)
Procedure: as §1, §2, §3, §4, §5, §6, §7

[12] = tested on: Pseudomonas aeruginosa (S-1); test: as above; details: HIA medium plate, 37° C., 18 hours, read-out: Minimum growth inhibitory concentration (MIC)
Procedure: as §1, §2, §3, §4, §5, §6, §7

[13] = tested on: Pseudomonas maltophilia (F-6257); test: as above; details: Stenotrophomonas maltophilia; HIA medium plate, 37° C., 18 hours; read-out: Minimum growth inhibitory concentration (MIC)
Procedure: as §1, §2, §3, §4, §5, §6, §7

[14] = tested on: Salmonella enteritidis (KB-21); test: as above; details: Salmonella enterica, HIA medium plate, 37° C., 18 hours, read-out: Minimum growth inhibitory concentration (MIC)
Procedure: as §1, §2, §3, §4, §5, §6, §7

[15] = tested on: Serratia marcescens (S-33); test: as above; details: HIA medium plate, 37° C., 18 hours, read-out: Minimum growth inhibitory concentration (MIC)
Procedure: as §1, §2, §3, §4, §5, §6, §7

Shigella flexneri (K-A) = test: as above; details: HIA medium plate, 37° C., 18 hours, read-out: Minimum growth inhibitory concentration (MIC)
Procedure: as §1, §2, §3, §4, §5, §6, §7

[16] = tested on: Staphylococcus aureus (FDA 209P); test: as above; details: FDA209P, 18 h, read-out: Minimum growth inhibitory concentration (MIC)
Procedure: as §1, §2, §3, §4, §5, §6, §7

[17] = tested on: Staphylococcus aureus (Y-8); test: as above; details: HIA medium plate, 37° C., 18 hours, read-out: Minimum growth inhibitory concentration (MIC)
Procedure: as §1, §2, §3, §4, §5, §6, §7

[18] = tested on: Streptococcus faecalis (Hoshi); test: as above; details: Enterococcus faecalis; HIA medium plate, 37° C., 18 hours; read-out: Minimum growth inhibitory concentration (MIC)
Procedure: as §1, §2, §3, §4, §5, §6, §7

[19] = tested on: Pseudomonas aeruginosa (NCTC 7244); test: MIC in HIB medium by turbidity (Referential Example 2, Table 2); details: NCTC7244, 18 h, 37° C.
Procedure: (§8) The compounds obtained in Synthesis Examples 1 to 4 were tested in the following manner.
(§9) A suspension of Pseudomonas aeruginosa (NCTC 7244) cultivated at 37° C. for 18 hours in a heart infusion broth medium (HIB medium) in a final amount of 10^5, 10^6 and 10^7 cells/ml in an HIB medium containing each of the test compounds which was obtained in the same way as in Referential Example 1 except that the maximum concentration of the test compound was 200 μg/ml. The bacterial strain was cultivated at 37° C. for 18 hours, and the turbidity of the culture broth was evaluated with the naked eye. The minimum concentration of the test compound at which no turbidity was noted was defined as MIC.

[20] = tested on: Pseudomonas aeruginosa (NCTC 7244); test: Minimum bactericidal concentration (Referential Example 2, Table 2); details: NCTC7244, 18 h, subculture on HIA medium
Procedure: as §8, §9
The growth of the bacterial strain was evaluated.

## Cc1nnc(SCC2=C(C(=O)O)N3C(=O)C(NC(=O)[C@H](NC(=O)c4cnc5c(c4O)C(=O)CCC5)c4ccc(O)cc4)C3SC2)s1 (single isomer, unassigned) [Synthesis Example 2]
[1]
  MIC: 12.5 µg/mL (≈ 18.3 µM)
[2]
  MIC: 0.39 µg/mL (≈ 0.571 µM)
Escherichia coli (26RO3)
  MIC: 1.56 µg/mL (≈ 2.28 µM)
Escherichia coli (K-12)
  MIC: 0.39 µg/mL (≈ 0.571 µM)
[3]
  MIC: 1.56 µg/mL (≈ 2.28 µM)
[4]
  MIC: 0.78 µg/mL (≈ 1.14 µM)
[5]
  MIC: 1.56 µg/mL (≈ 2.28 µM)
Proteus morganii (C-39)
  MIC: 6.25 µg/mL (≈ 9.15 µM)
Proteus rettgeri (T-2)
  MIC: 1.56 µg/mL (≈ 2.28 µM)
Proteus vulgaris (OX-19)
  MIC: 0.78 µg/mL (≈ 1.14 µM)
[6]; HIA medium plate, 37° C., 18 hours
  MIC: 3.13 µg/mL (≈ 4.58 µM)
[7]
  MIC: 12.5 µg/mL (≈ 18.3 µM)
[8]
  MIC: 12.5 µg/mL (≈ 18.3 µM)
[9]
  MIC: 6.25 µg/mL (≈ 9.15 µM)
[10]
  MIC: 6.25 µg/mL (≈ 9.15 µM)
[11]
  MIC: 12.5 µg/mL (≈ 18.3 µM)
[12]
  MIC: 1.56 µg/mL (≈ 2.28 µM)
[13]
  MIC: 3.13 µg/mL (≈ 4.58 µM)
[14]
  MIC: 0.2 µg/mL (≈ 0.293 µM)
[15]
  MIC: 12.5 µg/mL (≈ 18.3 µM)
Shigella flexneri (K-A)
  MIC: 0.2 µg/mL (≈ 0.293 µM)
[16]
  MIC: 0.78 µg/mL (≈ 1.14 µM)
[17]
  MIC: 3.13 µg/mL (≈ 4.58 µM)
[18]
  MIC: 12.5 µg/mL (≈ 18.3 µM)
[19]; 10^5 cells/ml inoculated
  MIC: 12.5 µg/mL (≈ 18.3 µM)
[19]; 10^6 cells/ml inoculated
  MIC: 12.5 µg/mL (≈ 18.3 µM)
[19]; 10^7 cells/ml inoculated
  MIC: > 200 µg/mL
[20]; 10^5 cells/ml inoculated
  MBC: 12.5 µg/mL (≈ 18.3 µM)
[20]; 10^6 cells/ml inoculated
  MBC: 12.5 µg/mL (≈ 18.3 µM)
[20]; 10^7 cells/ml inoculated
  MBC: > 200 µg/mL

## CC(=O)OCC1=C(C(=O)O)N2C(=O)C(NC(=O)[C@H](NC(=O)c3cnc4c(c3O)C(=O)CCC4)c3ccc(O)cc3)C2SC1 (single isomer, unassigned) [Synthesis Example 1, 7-[D-(-)-α-(4-hydroxy-5-oxo-5,6,7,8-tetrahydroquinoline-3-carboxamide)-α-(4-hydroxyphenyl)acetamido]-3-acetoxymethyl-Δ^3-cephem-4-carboxylic acid]
[1]
  MIC: 25 µg/mL (≈ 40.9 µM)
[2]
  MIC: 0.39 µg/mL (≈ 0.639 µM)
Escherichia coli (26RO3)
  MIC: 3.13 µg/mL (≈ 5.13 µM)
Escherichia coli (K-12)
  MIC: 1.56 µg/mL (≈ 2.55 µM)
[3]
  MIC: 3.13 µg/mL (≈ 5.13 µM)
[4]
  MIC: 1.56 µg/mL (≈ 2.55 µM)
[5]
  MIC: 3.13 µg/mL (≈ 5.13 µM)
Proteus morganii (C-39)
  MIC: 12.5 µg/mL (≈ 20.5 µM)
Proteus rettgeri (T-2)
  MIC: 3.13 µg/mL (≈ 5.13 µM)
Proteus vulgaris (OX-19)
  MIC: 1.56 µg/mL (≈ 2.55 µM)
[6]; 18 h
  MIC: 1.56 µg/mL (≈ 2.55 µM)
[7]
  MIC: 12.5 µg/mL (≈ 20.5 µM)
[8]
  MIC: 12.5 µg/mL (≈ 20.5 µM)
[9]
  MIC: 12.5 µg/mL (≈ 20.5 µM)
[10]
  MIC: 12.5 µg/mL (≈ 20.5 µM)
[11]
  MIC: 12.5 µg/mL (≈ 20.5 µM)
[12]
  MIC: 3.13 µg/mL (≈ 5.13 µM)
[13]
  MIC: 0.25 µg/mL (≈ 0.409 µM)
[14]
  MIC: 0.78 µg/mL (≈ 1.28 µM)
[15]
  MIC: 25 µg/mL (≈ 40.9 µM)
Shigella flexneri (K-A)
  MIC: 0.39 µg/mL (≈ 0.639 µM)
[16]
  MIC: 1.56 µg/mL (≈ 2.55 µM)
[17]
  MIC: 3.13 µg/mL (≈ 5.13 µM)
[18]
  MIC: 25 µg/mL (≈ 40.9 µM)
[19]; 10^5 cells/ml inoculated
  MIC: 12.5 µg/mL (≈ 20.5 µM)
[19]; 10^6 cells/ml inoculated
  MIC: 12.5 µg/mL (≈ 20.5 µM)
[19]; 10^7 cells/ml inoculated
  MIC: 25 µg/mL (≈ 40.9 µM)
[20]; 10^5 cells/ml inoculated
  MBC: 12.5 µg/mL (≈ 20.5 µM)
[20]; 10^6 cells/ml inoculated
  MBC: 25 µg/mL (≈ 40.9 µM)
[20]; 10^7 cells/ml inoculated
  MBC: > 200 µg/mL
